# Patent US11225480B2, “Malic enzyme inhibitors” (SUN PHARMA ADVANCED RESEARCH COMPANY LTD, priority 2019, dated 2022)
# Where a name gives a salt, the structure may show the parent alone.
# Key:
# Assay type in all cases: biochemical
# human ME3 enzyme = target: T1, human ME3 enzyme (Homo sapiens, UniProt Q16798); assay: ME3 inhibition assay (diaphorase/resazurin coupled fluorescence); conditions: 10 μM compound concentration; read-out: Malic Enzyme 3 % inhibition (10 μM)
# T1 sequence (Q16798 1-604): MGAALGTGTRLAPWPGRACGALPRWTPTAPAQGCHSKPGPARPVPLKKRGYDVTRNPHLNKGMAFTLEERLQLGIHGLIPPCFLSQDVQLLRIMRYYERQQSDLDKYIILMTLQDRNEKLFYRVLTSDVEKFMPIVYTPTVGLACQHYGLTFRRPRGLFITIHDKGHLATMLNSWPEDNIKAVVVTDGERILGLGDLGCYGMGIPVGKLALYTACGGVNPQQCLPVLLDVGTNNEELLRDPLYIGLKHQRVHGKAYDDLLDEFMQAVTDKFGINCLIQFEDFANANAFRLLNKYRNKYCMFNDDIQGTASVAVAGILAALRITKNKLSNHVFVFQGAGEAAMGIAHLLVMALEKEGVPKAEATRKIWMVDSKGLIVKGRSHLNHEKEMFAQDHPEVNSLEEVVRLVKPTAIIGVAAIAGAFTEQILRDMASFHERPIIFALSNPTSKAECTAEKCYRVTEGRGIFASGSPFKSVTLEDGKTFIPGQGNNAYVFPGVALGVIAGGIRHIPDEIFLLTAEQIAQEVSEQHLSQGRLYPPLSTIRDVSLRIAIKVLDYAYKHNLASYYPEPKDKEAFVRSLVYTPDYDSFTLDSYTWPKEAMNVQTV
# Summary of the method: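 Coupled read-out: NADPH made by human ME3 (20 nM stock) drives diaphorase conversion of resazurin (50 μM) to resorufin; buffer 50 mM Tris-HCl pH 7.5, 10 mM MnCl2, 3 mM L-malate.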
# human ME1 enzyme = target: T2, human ME1 enzyme (Homo sapiens, UniProt P48163); assay: ME1 inhibition assay (diaphorase/resazurin coupled fluorescence); conditions: 10 μM compound concentration; read-out: Malic Enzyme 1 % inhibition (10 μM)
# T2 sequence (P48163 1-572): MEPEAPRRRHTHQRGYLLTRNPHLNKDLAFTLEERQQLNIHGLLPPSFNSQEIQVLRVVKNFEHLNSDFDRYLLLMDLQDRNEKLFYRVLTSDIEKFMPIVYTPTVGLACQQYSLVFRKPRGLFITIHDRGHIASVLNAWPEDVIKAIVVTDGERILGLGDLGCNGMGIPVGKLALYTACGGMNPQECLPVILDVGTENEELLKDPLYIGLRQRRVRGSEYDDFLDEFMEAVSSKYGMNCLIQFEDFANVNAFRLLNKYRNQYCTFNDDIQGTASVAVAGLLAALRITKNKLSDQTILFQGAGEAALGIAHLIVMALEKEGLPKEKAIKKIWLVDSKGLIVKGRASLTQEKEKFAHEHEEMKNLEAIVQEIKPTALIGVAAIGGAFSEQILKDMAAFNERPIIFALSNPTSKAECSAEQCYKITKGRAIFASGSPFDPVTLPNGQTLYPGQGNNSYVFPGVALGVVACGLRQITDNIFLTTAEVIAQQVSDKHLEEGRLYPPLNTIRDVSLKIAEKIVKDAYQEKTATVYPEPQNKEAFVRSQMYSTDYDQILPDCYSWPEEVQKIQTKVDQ
# Summary of the method: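 Compounds at 10 μM preincubated 15 min in 50 mM Tris-HCl pH 7.5, 10 mM MnCl2, 2 mM L-malate, 10 μM resazurin, 0.01 mg/ml diaphorase, then human ME1 added for 5 min; reaction started with NADP+ and run 2 h at room temperature. Resorufin fluorescence (ex 540/em 600 nm) normalized to enzyme-only (100%) and no-enzyme (0%) controls.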
# human ME2 enzyme = human ME2 enzyme (Homo sapiens, UniProt P23368); assay: ME2 inhibition assay (diaphorase/resazurin coupled fluorescence); conditions: 10 μM compound concentration; read-out: Malic Enzyme 2 % inhibition (10 μM)
# human ME2 enzyme, sequence (P23368 19-584): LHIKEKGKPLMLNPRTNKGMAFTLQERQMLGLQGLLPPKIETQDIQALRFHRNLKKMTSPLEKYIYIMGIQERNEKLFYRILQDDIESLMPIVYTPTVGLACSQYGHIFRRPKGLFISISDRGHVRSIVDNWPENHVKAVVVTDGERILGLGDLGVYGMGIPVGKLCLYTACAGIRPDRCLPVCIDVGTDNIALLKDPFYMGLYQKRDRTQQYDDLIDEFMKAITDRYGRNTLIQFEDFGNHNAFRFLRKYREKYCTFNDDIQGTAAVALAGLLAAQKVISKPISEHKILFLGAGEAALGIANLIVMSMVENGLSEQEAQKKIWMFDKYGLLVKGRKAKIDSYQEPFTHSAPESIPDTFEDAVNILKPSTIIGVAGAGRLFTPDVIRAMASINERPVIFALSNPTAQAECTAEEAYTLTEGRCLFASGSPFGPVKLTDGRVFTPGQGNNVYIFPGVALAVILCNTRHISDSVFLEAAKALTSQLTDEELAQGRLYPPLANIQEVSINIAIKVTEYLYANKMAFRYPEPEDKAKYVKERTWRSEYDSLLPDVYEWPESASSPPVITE
# Description: ME2 catalyzes the oxidative decarboxylation of malate to pyruvate with conversion of the co-factor β-NAD+ to β-NADH. In the fluorescence assay, a coupled reaction is set up where in an enzyme, Diaphorase, utilizes NADH generated by ME2, to convert the dye resazurin to a fluorescent molecule resorufin. Resorufin has a characteristic fluorescence with excitation/emission at 540/600 nm (SLAS Discov., 2017 April 1:2472555217706649).
# The enzyme activity inhibition assay is set up in a 200 μL final reaction volume in a 96-well plate. As per the experimental design, 2 μL of the compounds at 100× the desired concentration (10 μM) in DMSO were added to the respective wells with 178 μL of assay buffer (50 mM Tris-HCl pH 7.5, 10 mM MnCl2, 7 mM L-malate, 50 μM Resazurin and 0.025 mg/ml Diapharose). The 96-well plate was incubated on a plate shaker at room temperature for 15 minutes protected from light. The well contents were gently mixed by adding 10 μL of 60 nM human ME2 enzyme to the wells and the plate was incubated on a shaker at room temperature for 5 minutes protected from light. Suitable ‘enzyme only’ and ‘no enzyme’ controls were included in the experiment. The enzymatic reaction was started by adding 10 μL of 2 mM β-NAD+. The reaction was gently mixed and the plate was initially left on a shaker at room temperature for −7 minutes protected from light. Later, the plate was incubated without shaking at room temperature for 2 hours. At the end of 2 hours, the fluorescence of the wells was measured at excitation 540 nm and emission 600 nm. The % enzyme activity of the compounds is obtained by normalizing the data with enzyme only (100%) and no enzyme controls (0%) using GraphPad Prism software 7.04.
smiles,measurement,setting,value
"O=C(CCCCc1ccccc1)N1CCN(c2ccc(O)cn2)CC1 [I.68, 1-[4-(5-Hydroxy-pyridin-2-yl)-piperazin-1-yl]-5-phenylpentan-1-one hydrochloride]",inhibition at 10 µM,human ME3 enzyme,> 90%
same,inhibition at 10 µM,human ME1 enzyme,> 90%
same,inhibition at 10 µM,human ME2 enzyme,70 to 89%
"Cn1cc(C(=O)N2CCN(c3ccc(O)cn3)CC2)c(=O)c2ccccc21 [I.69, 3-[4-(5-Hydroxy-2-pyridyl)-piperazine-1-carbonyl]-1-methyl-quinolin-4-one]",inhibition at 10 µM,human ME3 enzyme,> 90%
same,inhibition at 10 µM,human ME1 enzyme,70 to 89%
same,inhibition at 10 µM,human ME2 enzyme,70 to 89%
"O=C(O)CCCC(=O)N1CCN(c2ccc(O)cn2)CC1 [I.70, 5-[4-(5-hydroxy-2-pyridyl)piperazin-1-yl]-5-oxo-pentanoic acid]",inhibition at 10 µM,human ME3 enzyme,> 90%
same,inhibition at 10 µM,human ME1 enzyme,70 to 89%
same,inhibition at 10 µM,human ME2 enzyme,70 to 89%
"Cn1cc(C(=O)N2CCN(c3ccc(O)cn3)CC2)c2ccccc21 [I.71, [4-(5-Hydroxy-pyridin-2-yl)-piperazin-1-yl]-(1-methyl-1H-indol-3-yl)-methanone]",inhibition at 10 µM,human ME3 enzyme,> 90%
same,inhibition at 10 µM,human ME1 enzyme,> 90%
same,inhibition at 10 µM,human ME2 enzyme,70 to 89%
"O=C(CCc1cccc(C(F)(F)F)c1)N1CCN(c2ccc(O)cn2)CC1 [I.72, 1-[4-(5-Hydroxy-pyridin-2-yl)-piperazin-1-yl]-3-(3-trifluoro-methylphenyl)-propan-1-one]",inhibition at 10 µM,human ME3 enzyme,> 90%
same,inhibition at 10 µM,human ME1 enzyme,> 90%
same,inhibition at 10 µM,human ME2 enzyme,70 to 89%
"O=C(c1cc2ccccc2oc1=O)N1CCN(c2ccc(O)cn2)CC1 [I.73, 3-[4-(5-Hydroxy-2-pyridyl)-piperazine-1-carbonyl]-chromen-2-one]",inhibition at 10 µM,human ME3 enzyme,> 90%
same,inhibition at 10 µM,human ME1 enzyme,70 to 89%
same,inhibition at 10 µM,human ME2 enzyme,70 to 89%
"O=C(C=C(c1ccccc1)c1ccccc1)N1CCN(c2ccc(O)cn2)CC1 [I.74, 1-[4-(5-Hydroxy-2-pyridyl)-piperazin-1-yl]-3,3-diphenyl-prop-2-en-1-one]",inhibition at 10 µM,human ME3 enzyme,> 90%
same,inhibition at 10 µM,human ME1 enzyme,> 90%
same,inhibition at 10 µM,human ME2 enzyme,70 to 89%
"O=C(CC(c1ccccc1)c1ccccc1)N1CCN(c2ccc(O)cn2)CC1 [I.75, 1-[4-(5-Hydroxy-2-pyridyl)-piperazin-1-yl]-3,3-diphenyl-propan-1-one]",inhibition at 10 µM,human ME3 enzyme,> 90%
same,inhibition at 10 µM,human ME1 enzyme,> 90%
same,inhibition at 10 µM,human ME2 enzyme,70 to 89%
"O=C(CCc1ccc(Cl)c(Cl)c1)N1CCN(c2ccc(O)cn2)CC1 [I.79, 3-(3,4-Dichloro-phenyl)-1-[4-(5-hydroxy-pyridin-2-yl)-piperazin-1-yl]-propan-1-one]",inhibition at 10 µM,human ME3 enzyme,> 90%
same,inhibition at 10 µM,human ME1 enzyme,> 90%
same,inhibition at 10 µM,human ME2 enzyme,> 90%
"Cc1cccc(Cl)c1C(=O)N1CCN(c2ccc(O)cn2)CC1 [I.80, (2-Chloro-6-methylphenyl)-[4-(5-hydroxy-pyridin-2-yl)-piperazin-1-yl]-methanone]",inhibition at 10 µM,human ME3 enzyme,> 90%
same,inhibition at 10 µM,human ME1 enzyme,> 90%
same,inhibition at 10 µM,human ME2 enzyme,> 90%
"O=C(CCc1ccc(Cl)cc1)N1CCN(c2ccc(O)cn2)CC1 [I.82, 3-(4-Chloro-phenyl)-1-[4-(5-hydroxy-pyridin-2-yl)-piperazin-1-yl]-propan-1-one]",inhibition at 10 µM,human ME3 enzyme,> 90%
same,inhibition at 10 µM,human ME1 enzyme,> 90%
same,inhibition at 10 µM,human ME2 enzyme,> 90%
"O=C(CNC12CC3CC(CC(C3)C1)C2)N1CCN(c2ccc(O)cn2)CC1 [I.83, 2-(1-Adamantyl-amino)-1-[4-(5-hydroxy-2-pyridyl)-piperazin-1-yl]ethanone]",inhibition at 10 µM,human ME3 enzyme,> 90%
same,inhibition at 10 µM,human ME1 enzyme,50 to 69%
same,inhibition at 10 µM,human ME2 enzyme,50 to 69%
"COc1ccc(C(=CC(=O)N2CCN(c3ccc(O)cn3)CC2)c2ccc(OC)cc2)cc1 [I.84, 1-[4-(5-Hydroxy-2-pyridyl)-piperazin-1-yl]-3,3-bis(4-methoxy-phenyl)-prop-2-en-1-one]",inhibition at 10 µM,human ME3 enzyme,> 90%
same,inhibition at 10 µM,human ME1 enzyme,70 to 89%
same,inhibition at 10 µM,human ME2 enzyme,70 to 89%
O=C(c1cc2cc(F)ccc2[nH]1)N1CCN(c2ccc(O)cn2)CC1 [I.88],inhibition at 10 µM,human ME3 enzyme,> 90%
same,inhibition at 10 µM,human ME1 enzyme,> 90%
same,inhibition at 10 µM,human ME2 enzyme,70 to 89%
"O=C(CCc1cccc(F)c1)N1CCN(c2ccc(O)cn2)CC1 [I.92, 3-(3-Fluoro-phenyl)-1-[4-(5-hydroxy-pyridin-2-yl)-piperazin-1-yl]-propan-1-one]",inhibition at 10 µM,human ME3 enzyme,> 90%
same,inhibition at 10 µM,human ME1 enzyme,> 90%
same,inhibition at 10 µM,human ME2 enzyme,> 90%
"COc1ccc(C(CC(=O)N2CCN(c3ccc(O)cn3)CC2)c2ccc(OC)cc2)cc1 [I.93, 1-[4-(5-Hydroxy-2-pyridyl)-piperazin-1-yl]-3,3-bis(4-methoxy-phenyl)-propan-1-one]",inhibition at 10 µM,human ME3 enzyme,> 90%
same,inhibition at 10 µM,human ME1 enzyme,70 to 89%
same,inhibition at 10 µM,human ME2 enzyme,70 to 89%
"O=C(CC=C(c1ccccc1)c1ccccc1)N1CCN(c2ccc(O)cn2)CC1 [I.94, 1-[4-(5-Hydroxy-2-pyridyl)-piperazin-1-yl]-4,4-diphenyl-but-3-en-1-one]",inhibition at 10 µM,human ME3 enzyme,> 90%
same,inhibition at 10 µM,human ME1 enzyme,70 to 89%
same,inhibition at 10 µM,human ME2 enzyme,70 to 89%
"O=C(N1CCN(c2ccc(O)cn2)CC1)C(O)(c1ccccc1)C1CCCCC1 (stereo not drawn) [I.95, 2-cyclohexyl-2-hydroxy-1-[4-(5-hydroxy-2-pyridyl)piperazin-1-yl]-2-phenyl-ethanone]",inhibition at 10 µM,human ME3 enzyme,> 90%
same,inhibition at 10 µM,human ME1 enzyme,70 to 89%
same,inhibition at 10 µM,human ME2 enzyme,70 to 89%
"CN(CC(=O)N1CCN(c2ccc(O)cn2)CC1)CC12CC3CC(CC(C3)C1)C2 [I.96, 2-[1-Adamantyl-methyl-(methyl)-amino]-1-[4-(5-hydroxy-2-pyridyl)-piperazin-1-yl]ethanone]",inhibition at 10 µM,human ME3 enzyme,> 90%
same,inhibition at 10 µM,human ME1 enzyme,70 to 89%
same,inhibition at 10 µM,human ME2 enzyme,70 to 89%
"Cc1ccccc1CCC(=O)N1CCN(c2ccc(O)cn2)CC1 [I.107, 1-[4-(5-Hydroxy-pyridin-2-yl)-piperazin-1-yl]-3-o-tolyl-propan-1-one]",inhibition at 10 µM,human ME3 enzyme,> 90%
same,inhibition at 10 µM,human ME1 enzyme,> 90%
same,inhibition at 10 µM,human ME2 enzyme,> 90%
"CC(CC(=O)N1CCN(c2ccc(O)cn2)CC1)c1ccccc1 (stereo not drawn) [I.115, 1-[4-(5-Hydroxy-pyridin-2-yl)-piperazin-1-yl]-3-phenyl-butan-1-one dihydro-chloride]",inhibition at 10 µM,human ME3 enzyme,> 90%
same,inhibition at 10 µM,human ME1 enzyme,> 90%
same,inhibition at 10 µM,human ME2 enzyme,> 90%
"O=C(CCc1cccs1)N1CCN(c2ccc(O)cn2)CC1 [I.116, 1-[4-(5-Hydroxy-pyridin-2-yl)-piperazin-1-yl]-3-thiophen-2-yl-propan-1-one]",inhibition at 10 µM,human ME3 enzyme,> 90%
same,inhibition at 10 µM,human ME1 enzyme,> 90%
same,inhibition at 10 µM,human ME2 enzyme,> 90%
"O=C(CCC1CCCCC1)N1CCN(c2ccc(O)cn2)CC1 [I.121, 3-Cyclohexyl-1-[4-(5-hydroxy-2-pyridyl)-piperazin-1-yl]propan-1-one]",inhibition at 10 µM,human ME3 enzyme,> 90%
same,inhibition at 10 µM,human ME1 enzyme,> 90%
same,inhibition at 10 µM,human ME2 enzyme,> 90%
